In patent publication US20240268379A1, “BIODEGRADABLE PVA/PVP HYDROGELS, USES AND PREPARATION THEREOF” (Bar-Ilan University, priority 2021, published 2024):

Experiment: Thermal stability of thymol by TGA-MS
Assay type: physicochemical
Conditions: 20° C./min, nitrogen
Experimental: Thermal gravimetric analysis (TGA) was carried out using SETSYS, by Setaram. The released products during the measurements were obtained by using Hiden HPR-20 QIC mass spectrometer (TGA) coupled with mass spectroscopy (MS). The analysis was conducted to study the stability effect of the PVA/PVP hydrogel, under heat treatment, on thymol, entrapped in the hydrogel, relative to thymol pure form. The tested samples were heated from 30° C. up to 630° C. (20° C./min heat rate) under nitrogen inert atmosphere (20 ml/min nitrogen flow rate).

With `Cc1ccc(C(C)C)c(O)c1` [pure thymol, thymol] the “thymol loss end temperature” value was 130 °C and the “thymol loss start temperature” value was 70 °C.
